Patent US20140303166A1, “COSMETIC METHOD FOR CHANGING THE APPEARANCE OF EYES” (priority 2013, published 2014)
Structures can show the parent of a compound that is named as a salt.

tested on: eyelids; test: topical application to the eyelids (eyelid retraction / eye-widening); assay type: in vivo; settings: topically applied, alone or in combination
Text: Topical treatments to which the current application is directed include ointments, creams, and solutions that contain one or more of the compounds travoprost, dorzolamide hydrochloride, and timolol maleate, alone or in combination, and/or one or more chemically-related compounds and may also include pure forms of various types of prostaglandin, synthetic prostaglandin, and synthetic prostaglandin analogues.

Q: With `CCNC(=O)CCCC=CCC1C(O)CC(O)C1C=CC(O)CCc1ccccc1` (stereo not drawn) [bimatoprost, 7-[3,5-dihydroxy-2-(3-hydroxy-5-phenyl-pent-1-enyl)-cyclopentyl]-N-ethyl-hept-5-enamide] as the compound, how does the “eyelid retraction after topical application to the eyelids” value (“eyelid retraction” below) read?
A: cause the eyelids to retract more completely

Q: Which “eyelid retraction” value does the source give for `CCN[C@H]1C[C@H](C)S(=O)(=O)c2sc(S(N)(=O)=O)cc21` [dorzolamide hydrochloride, (4S,6S)-2-ethylamino-4-methyl-5,5-dioxo-5λ^6,7dithiabicyclo[4.3.0] nona-8,10-diene-8-sulfonamide] here?
A: cause the eyelids to retract more completely

Q: With `CC(C)OC(=O)CCC/C=C\C[C@@H]1[C@@H](CC[C@@H](O)CCc2ccccc2)[C@H](O)C[C@@H]1O` [latanoprost, isopropyl (Z)-7-[(1R,2R,3R,5S)-3,5-dihydroxy-2-[(3R)3-hydroxy-5-phenylpentyl]-cyclopentyl] hept-5-enoate] as the compound, how does the “eyelid retraction” value read?
A: cause the eyelids to retract more completely

Q: How did the “eyelid retraction” value turn out when `CC(C)(C)NC[C@H](O)COc1nsnc1N1CCOCC1` [timolol maleate, (S)-1-(tert-butylamino)-3-[(4-morpholin-4-yl-1,2,5-thiadiazol-3-yl)oxy]propan-2-ol] was run?
A: cause the eyelids to retract more completely

Q: `CC(C)OC(=O)CCCC=CCC1C(O)CC(O)C1C=CC(O)COc1cccc(C(F)(F)F)c1` (stereo not drawn) [travoprost, propan-2-yl 7-[3,5-dihydroxy-2-[3-hydroxy-4-[3-(trifluoromethyl)phenoxy]-but-1-enyl]-cyclopentyl]hept-5-enoate] was tested. Which “eyelid retraction” value did it give?
A: cause the eyelids to retract more completely

Q: How did the “eyelid retraction” value turn out when `CCCCCCCC(=O)CC[C@@H]1[C@@H](C/C=C\CCCC(=O)OC(C)C)[C@@H](O)C[C@H]1O` [unoprostone, isopropyl (Z)-7-[(1R,2R,3R,5 S)-3,5-dihydroxy-2-(3-oxodecyl)cyclopentyl] hept-5-enoic acid] was run?
A: cause the eyelids to retract more completely
